According to patent US20220409617A1, “Drug Formulations and Methods of Treatment for Metabolic Disorders” (The Regents of the University of California, priority 2019, published 2022):

Assays:
[1] = tested on: 3T3-L1 adipocytes; assay: Insulin-stimulated 2-deoxyglucose uptake; assay type: cell-based, mouse; details: 3 h, 893 10 μM, MK-2206 2 μM
Experimental: (§1) 3T3-L1 cells were maintained in DMEM with 10% FBS and 1% penicillin-streptomycin until induced to differentiate. 3T3-L1 pre-adipocytes were differentiated as described in (M. P. Valley, et al., Anal. Biochem. 505: 43-50, 2016, the disclosure of which is incorporated herein by reference) with slight modifications. Briefly, pre-adipocytes were grown to confluence. After 2 d, cells were induced with maintenance media containing 500 μM IBMX (15879, Sigma-Aldrich, St. Louis, Mo.), 1 μM dexamethasone (D4902, Sigma-Aldrich), 5 μg/mL bovine insulin (10516, Sigma-Aldrich), and 5 μM troglitazone (50-115-0786, ApexBio). Media was changed every 2-3 d for 7 d. On day 7 post-induction, media was changed to maintenance media+5 μg/mL bovine insulin. On day 9 post-induction, media was changed to maintenance media. Mature adipocytes were used 12-14 d post-induction for all experiments. LSL-KrasG12D mouse embryonic fibroblasts (MEFs) with and without Cre-mediated deletion of the STOP cassette were obtained from David Tuveson (Cold Spring Harbor Laboratory, Cold Spring Harbor N.Y., USA) in 2000. p53^flox/flox MEFs were derived in house (2015) from C57BL/6 mice using standard techniques and immortalized by transient expression of Cre recombinase and deletion of p53. MEFs were cultured and maintained in DMEM with 10% FBS and 1% penicillin-streptomycin. […]

[2] = Fasting blood glucose and oral glucose tolerance test in HFD-fed mice; assay type: in vivo, mouse
Experimental: Mice were fasted for 6 h prior to blood glucose testing at ZT10. When sphingolipid-like compound 893 treatment was combined with an OGTT, mice were treated at ZT6. Once baseline fasting blood glucose was determined using a handheld blood glucose meter (Prodigy Diabetes Care, Charlotte, N.C.) and a drop of blood collected from a tail vein nick, mice were gavaged with an oral glucose solution (20% w/v in water, 2 g/kg bodyweight) and blood glucose measured in a drop of tail vein blood at 0, 15, 30, 60 and 120 min. The area under the curve was determined using Graphpad Prism software.

[3] = tested on: GLUT1; details: cited from earlier work
[4] = tested on: AKT; details: cited from earlier work
[5] = tested on: AKT; assay: Insulin-stimulated AKT activation, western blot; assay type: cell-based, mouse; details: 3T3-L1 adipocytes; 3 h pre-treatment, C2-ceramide 50 or 100 μM, 893 5 or 10 μM; insulin 100 nM 15 min
Experimental: as §1, with “experiments.” for “experiments. LSL-KrasG12D mouse embryonic fibroblasts (MEFs) with and without Cre-mediated deletion of the STOP cassette were obtained from David Tuveson (Cold Spring Harbor Laboratory, Cold Spring Harbor N.Y., USA) in 2000. p53^flox/flox MEFs were derived in house (2015) from C57BL/6 mice using standard techniques and immortalized by transient expression of Cre recombinase and deletion of p53. MEFs were cultured and maintained in DMEM with 10% FBS and 1% penicillin-streptomycin.”
Mature adipocytes were serum starved for 16 h then treated with vehicle, ceramide (50 or 100 μM), or sphingolipid-like compound 893 (5 or 10 μM) in serum-free media supplemented with 0.2% fatty-acid free BSA for 3 h after which 100 nM insulin was added for 15 min. […] Protein content was quantified in the supernatant using the Pierce™ BCA Protein Assay Kit (Thermo-Fisher Scientific, Waltham, Mass.). […]

[6] = cited from earlier work
[7] = tested on: mouse embryonic fibroblasts; assay: Basal 2-deoxyglucose uptake in fibroblasts; assay type: cell-based; details: 3 h, 893 5 or 10 μM
Experimental: Glucose uptake assays were performed using the Glucose-Glo™ uptake Kit according to manufacturer's instructions (cat # J1342, Promega, Madison, Wis.). For basal glucose uptake in MEFs, cells were plated the night before in 96-well black, clear-bottom plates. Cells were treated for 3 h, washed once in PBS, then pulsed with 1 mM 2-DG in glucose-free media containing their respective drug treatments. After 10 min, the reaction was quenched and developed according to manufacturer's protocol. To assay insulin-stimulated glucose uptake, mature adipocytes in 96-well black clear-bottom plates were serum starved for 16 h. Cells were treated in serum-free media supplemented with 0.2% fatty-acid free BSA for 3 h. Cells were washed once in PBS and incubated in glucose-free media with their respective drug treatments, with or without 100 nM bovine insulin, for 15 min. A concentrated 2-DG stock was added directly to wells for 10 min (1 mM final concentration), then the reaction stopped and developed according to manufacturer's protocol.

[8] = 120 mg/kg by oral gavage, prior studies

## CCCCCCCCc1ccc([C@H]2CCN[C@@H]2CO)cc1.Cl [compound 893]
[1]
  Insulin-stimulated glucose uptake: but not sphingolipid-like compound 893, impeded insulin-stimulated glucose uptake in adipocytes
[2]; 60 mg/kg three days a week for 25 days
  Fasting glucose and glucose disposal (OGTT): intermediate effect
[2]; 120 mg/kg three days a week for 25 days
  Fasting glucose and glucose disposal (OGTT): normalized both fasting glucose and glucose disposal
[3]
  Effect on GLUT1: down-regulate GLUT1
[4]
  Effect on AKT activity: does not reduce AKT activity
[5]
  Insulin-stimulated AKT activation: but not sphingolipid-like compound 893, interfered with insulin-stimulated AKT activation
[6]; [8]
  Amino acid-dependent mTORC1 signaling: reduces amino acid-dependent mTORC1 signaling
  Toxicity (blood chemistry, complete blood count, liver and small intestine histology): without toxicity
  Tumor growth: inhibits tumor growth
[6]; chronic treatment with the high dose, otherwise healthy tumor-bearing mice
  Hepatotoxicity: not hepatotoxic
[7]
  Constitutive glucose uptake: constitutive glucose uptake in fibroblasts was reduced
